In patent US20140248373A1, “ENHANCED PERFORMANCE HYDROGEN PEROXIDE FORMULATIONS COMPRISING PROTEINS AND SURFACTANTS” (Advanced BioCatalytics Corporation, priority 2008, published 2014):
Where two headings read alike, the source gives them in different places.

Legend:
[1] = Oxidation-reduction potential by Square Wave Voltammetry (SWVA); assay type: physicochemical; conditions: for Wave Height, I, mA / E, mV vs. Ag/AgCl: SWVA; for E, mV vs. Ag/AgCl: absence of atmospheric oxygen
Procedure: The compatibility of H2O2 and the protein/surfactant system was assessed using two approaches. […] Second, H2O2 concentration was determined over various time periods, up to one year, in the mixtures of hydrogen peroxide and protein/surfactant mixture, by volumetric titration with standardized permanganate solution. ORP measurements were conducted using Square Wave Voltammetry (SWVA) in a glove box, in the absence of atmospheric oxygen. Solutions 27% and 15% H2O2 with and without addition of 5% protein/surfactant were taken for these experiments.

[2] = test system: E. Coli; conditions: for E. Coli Sample (CFU/mL): 5% Horse serum
Procedure: (§1) The following tests were run with PS-2 at a 4% concentration (0.72% total surfactant), H2O2 at 3% and phosphoric acid at <0.1% to pH 2.9, Versene (EDTA) at 0.1%. Test methodology was Suspension Based, Quantitative Time-Kill at 22° C., but with 5% Horse serum added to show the effects of organic contaminant on antimicrobial activity. A control of 3% H2O2 was run in this example.

[3] = test system: S. aureus; conditions: for S. aureus Sample (CFU/mL): 5% Horse serum
Procedure: as §1

[4] = exposure time of up to 10 minutes, organic contamination

With `OO` [Composition H2O2, hydrogen peroxide] as the molecule, how does the “Potential (apex of current wave)” value ([1]; NHE) read?
Its value is “about 1.8 V”.

What about the “Potential (apex of current wave)” value ([1]; against saturated silver/silver chloride electrode) of the same molecule?
Its value is “about 1.6 V”.

With `OO` [Control, 3% H2O2, hydrogen peroxide] as the molecule, how does the “E. Coli Sample (CFU/mL)” value ([2]; 1 min) read?
The value was 1.71E+07 CFU/mL.

What about the “E. Coli Sample (CFU/mL)” value ([2]; 5 min) of the same molecule?
Its value is 6.80E+06 CFU/mL.

And the “E. Coli Sample (CFU/mL)” value ([2]; 10 min)?
The value was 1.36E+06 CFU/mL.

What about the “E. Coli Sample (CFU/mL)” value ([2]; "Time Zero") of the same molecule?
The value was 1.99E+07 CFU/mL.

And the “log reduction, gram negative pathogen (E. Coli)” value [2, 4]?
Its value is 1 log.

And the “S. aureus Sample (CFU/mL)” value ([3]; 1 min)?
Its value is 1.20E+07 CFU/mL.

What about the “S. aureus Sample (CFU/mL)” value ([3]; 5 min) of the same molecule?
Its value is 8.80E+06 CFU/mL.

And the “S. aureus Sample (CFU/mL)” value ([3]; 10 min)?
Its value is 3.86E+06 CFU/mL.

What about the “S. aureus Sample (CFU/mL)” value ([3]; "Time Zero") of the same molecule?
The value was 1.04E+07 CFU/mL.

What about the “log reduction, gram positive pathogen (S. aureus)” value [3, 4] of the same molecule?
The value was 1 log.

For `OO` [H2O2, 15%, hydrogen peroxide], which “Wave Height, I, mA” value [1] is on record?
The value was 85 mA.

What about the “E, mV vs. Ag/AgCl” value [1] of the same molecule?
The value was 1,550 mV.

What does the source list for `OO` [H2O2, 27%, hydrogen peroxide]?
Wave Height, I, mA [1]: 92 mA; E, mV vs. Ag/AgCl [1]: 1,600 mV; Wave Height, I, mA ([1]; listed as pure H2O2): about 92 mA
